Test results as given in US7807690B2, “2,3-dihydro-iminoisoindole derivatives” (Eisai R&D Management Co., Ltd., priority 2007, dated 2010).
Counter-ions that a name gives are not always drawn.

target: T1, human clotting factor VIIa (Homo sapiens, UniProt P08709); assay: Inhibiting activity against clotting factor VIIa (chromogenic substrate Spectrozyme FVIIa, TF/Factor VIIa enzyme solution); assay type: biochemical; conditions: 10 nmol/L human TF, 5 nmol/L Factor VIIa, room temperature 40 minutes, 405 nm
T1 construct: a human clotting factor VIIa (hereinafter, “Factor VIIa”) purified sample; purchased Enzyme Research Laboratories HFVIIa
Experimental: A dimethyl sulfoxide (DMSO) solution was prepared with an invention compound concentration of 10 mmol/L (10 mmol/L compound solution).
One packet of tris-hydroxymethylaminomethane-preset (hereinafter referred to as “Tris preset”)(Product of Sigma Corp., Catalog No. T8293), 8.8 g of sodium chloride (NaCl) and 1 g of bovine serum albumin (hereinafter abbreviated as “BSA”) were dissolved in 1 L of water to prepare a Tris-BSA buffer (100 mmol/L Tris, 0.15 mol/L NaCl, 0.1% BSA, pH 7.4).
The Tris-BSA buffering solution (180 μL) was added to the aforementioned 10 mmol/L compound solution (20 μL). The mixture was provided for a 10-fold dilution series using the aforementioned Tris-BSA buffering solution to prepare solutions with compound concentrations of 1.0 mmol/L, 100, 10, 1, 0.1, 0.01 and 0.001 μmol/L (1.0 mmol-0.001 μmol/L compound solutions).
As a control, a solution was prepared by 10-fold dilution of DMSO with the Tris-BSA buffer (hereinafter referred to as “control 10% solution”).
After dissolving one pack of Tris-Preset, NaCl (8.8 g) and BSA (1 g) in water (approximately 900 mL), a 1 mol/L calcium chloride (CaCl2) aqueous solution (15 mL) and a 1 mg/mL Cephalin aqueous solution (30 mL) were added, and water was added to a total volume of 1 L. To this solution there was added a human tissue factor (hereinafter, “TF”) sample (product of Calbiochem, Catalog No. 612151)(450 μg) to a TF sample concentration of 10 nmol/L, and then a human clotting factor VIIa (hereinafter, “Factor VIIa”) purified sample (product of Enzyme Research Laboratories, Catalog No. HFVIIa)(250 μg) was added to a Factor VIIa purified sample concentration of 5 nmol/L, to prepare an enzyme solution (100 mmol/L Tris-HCl, 0.15 mol/L NaCl, 15 mmol/L CaCl2, 30 μg/mL Cephalin, 1 mg/mL BSA, 10 nmol/L TF, 5 nmol/L Factor VIIa).
To 110 μL of this enzyme solution there was added 15 μL of each of the 1.0-mmol-0.001 μmol/L compound solutions, and then 25 μL of a 1.0 mmol/L synthetic chromogenic substrate solution (Spectrozyme FVIIa, product of American Diagnostica, Catalog No. 217L) was added and the mixture was allowed to stand at room temperature for 40 minutes. The amount of 4-nitroanilide released into the solution was quantified by spectrophotometry (405 nm).
A control […] was used in place of the compound solution for measurement in the same manner as a control.
The enzyme reaction inhibition was determined based on this measurement in the presence of the compounds of the invention from 100 μmol/L to 0.1 nmol/L. The IC50 value of each compound as an index of inhibiting activity against clotting factor VIIa was calculated based on nonlinear regression analysis of the enzyme reaction inhibition at each compound concentration.

T1 sequence (P08709 213-466 limits assumed): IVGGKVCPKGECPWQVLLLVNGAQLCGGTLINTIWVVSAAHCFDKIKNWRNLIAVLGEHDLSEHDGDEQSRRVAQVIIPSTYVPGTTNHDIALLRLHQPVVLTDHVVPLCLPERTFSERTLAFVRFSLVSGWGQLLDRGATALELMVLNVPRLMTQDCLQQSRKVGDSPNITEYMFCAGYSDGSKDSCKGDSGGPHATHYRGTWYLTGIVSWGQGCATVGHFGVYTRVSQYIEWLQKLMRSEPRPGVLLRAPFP
T1 sequence (P08709 61-212 limits assumed): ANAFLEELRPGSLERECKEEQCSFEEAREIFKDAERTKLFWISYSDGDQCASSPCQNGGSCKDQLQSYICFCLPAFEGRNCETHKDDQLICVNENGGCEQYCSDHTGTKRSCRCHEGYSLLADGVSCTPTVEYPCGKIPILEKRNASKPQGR
T1 sequence (P13726 33-295 partner): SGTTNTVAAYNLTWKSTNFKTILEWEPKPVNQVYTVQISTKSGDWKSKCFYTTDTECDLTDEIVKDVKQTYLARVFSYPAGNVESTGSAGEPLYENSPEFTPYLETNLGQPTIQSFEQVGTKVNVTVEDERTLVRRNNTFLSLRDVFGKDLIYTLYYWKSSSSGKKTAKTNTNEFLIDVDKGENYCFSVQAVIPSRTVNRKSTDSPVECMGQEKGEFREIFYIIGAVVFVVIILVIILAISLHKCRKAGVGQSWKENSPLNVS

Compared with `COc1cc(C(Nc2ccc3c(c2)CNC3=N)c2nn(-c3ncsc3C(=O)O)c(=O)[nH]2)c(F)c2c1OCCC2` (single isomer, unassigned) [Example 1], `COc1cc(OCCO)c(F)c(C(Nc2ccc3c(c2)CNC3=N)c2nn(-c3ncsc3C(=O)O)c(=O)[nH]2)c1` (centres unmarked) [Example 6, 4-(3-{[2-Fluoro-3-(2-hydroxyethoxy)-5-methoxyphenyl]-(1-imino-2,3-dihydro-1H-isoindol-5-ylamino)methyl}-5-oxo-4,5-dihydro-[1,2,4]triazol-1-yl)thiazole-5-carboxylic Acid] is 3.2-fold higher in IC50: 38 nM for the first, 123 nM for the second. The first is the more potent here.

Compared with `COc1cc(C(Nc2ccc3c(c2)CNC3=N)c2nn(-c3ncccc3N)c(=O)[nH]2)cc2c1OCOC2` (single isomer, unassigned) [Example 2, acetate], `COc1cc(C(Nc2ccc3c(c2)CNC3=N)c2nn(-c3ncccn3)c(=O)[nH]2)cc2c1OCOC2` (single isomer, unassigned) [Example 5] is 1.5-fold higher in IC50: 13 nM for the first, 20 nM for the second.

First: COc1cc(C(Nc2ccc3c(c2)CNC3=N)c2nn(-c3ccsc3C(=O)O)c(=O)[nH]2)cc2c1OCOC2 (single isomer, unassigned) [Example 7]
Second: CCc1cc(OCCO)c(F)c(C(Nc2ccc3c(c2)CNC3=N)c2nn(-c3ccsc3C(=O)O)c(=O)[nH]2)c1 (single isomer, unassigned) [Example 17]
The IC50 of the first is 1.5-fold higher: 3 nM for the first, 2 nM for the second. The second is the more potent here.

First: COc1cc(F)c(C(Nc2ccc3c(c2)CNC3=N)c2nn(-c3ccccc3N)c(=O)[nH]2)cc1OC (single isomer, unassigned) [Example 10, acetate]
Second: COc1cc(F)c(C(Nc2ccc3c(c2)CNC3=N)c2nn(-c3ccccc3C(=O)O)c(=O)[nH]2)cc1OC (centres unmarked) [Example 13, 2-{3-[(2-Fluoro-4,5-dimethoxyphenyl)-(1-imino-2,3-dihydro-1H-isoindol-5-ylamino)methyl]-5-oxo-4,5-dihydro-[1,2,4]triazol-1-yl}benzoic Acid Trifluoroacetate]
The IC50 of the first is 3-fold higher: 12 nM for the first, 4 nM for the second.

Compared with `CCc1cc(OCCO)c(F)c(C(Nc2ccc3c(c2)CNC3=N)c2nn(-c3ncccc3N)c(=O)[nH]2)c1` (single isomer, unassigned) [Example 16, Acetate], `CCc1cc(OCCO)c(F)c(C(Nc2ccc3c(c2)CNC3=N)c2nn(-c3ncccn3)c(=O)[nH]2)c1` (centres unmarked) [Example 4, 5-{[5-Ethyl-2-fluoro-3-(2-hydroxyethoxy)phenyl]-(1-imino-2,3-dihydro-1H-isoindol-5-ylamino)methyl}-2-pyrimidin-2-yl-2,4-dihydro-[1,2,4]triazol-3-one] is 4.7-fold higher in IC50: 3 nM for the first, 14 nM for the second. The first is the more potent here.

Going from `CCc1cc(OCCN(C)C)c(F)c(C(Nc2ccc3c(c2)CNC3=N)c2nn(-c3ncccn3)c(=O)[nH]2)c1` (centres unmarked) [Example 3, 5-{[3-(2-Dimethylaminoethoxy)-5-ethyl-2-fluorophenyl]-(1-imino-2,3-dihydro-1H-isoindol-5-ylamino)methyl}-2-pyrimidin-2-yl-2,4-dihydro-[1,2,4]triazol-3-one Bistrifluoroacetate] to `CCc1cc(OCCN(C)C)c(F)c(C(Nc2ccc3c(c2)CNC3=N)c2nn(-c3ccccc3N)c(=O)[nH]2)c1` (centres unmarked) [Example 8, 2-(2-Aminophenyl)-5-{[3-(2-dimethylaminoethoxy)-5-ethyl-2-fluorophenyl]-(1-imino-2,3-dihydro-1H-isoindol-5-ylamino)methyl}-2,4-dihydro-[1,2,4]triazol-3-one bistrifluoroacetate], the IC50 falls from 25 nM to 15 nM (1.7-fold).

First: COc1cc(F)c(C(Nc2ccc3c(c2)CNC3=N)c2nn(-c3nc[nH]c3C(=O)O)c(=O)[nH]2)cc1OC (centres unmarked) [Example 9, 5-{3-[(2-Fluoro-4,5-dimethoxyphenyl)-(1-imino-2,3-dihydro-1H-isoindol-5-ylamino)methyl]-5-oxo-4,5-dihydro-[1,2,4]triazol-1-yl}-3H-imidazole-4-carboxylic Acid]
Second: COc1cc(F)c(C(Nc2ccc3c(c2)CNC3=N)c2nn(-c3n[nH]cc3C(=O)O)c(=O)[nH]2)cc1OC (centres unmarked) [Example 15, 3-{3-[(2-Fluoro-4,5-dimethoxyphenyl)-(1-imino-2,3-dihydro-1H-isoindol-5-ylamino)methyl]-5-oxo-4,5-dihydro-[1,2,4]triazol-1-yl}-1H-pyrazole-4-carboxylic Acid]
The IC50 of the first is 4.9-fold lower: 42 nM for the first, 207 nM for the second. The first is the more potent here.

First: COc1cc(OCCO)c(F)c(C(Nc2ccc3c(c2)CNC3=N)c2nn(-c3ncoc3C(=O)O)c(=O)[nH]2)c1 (centres unmarked) [Example 11, 4-(3-{[2-Fluoro-3-(2-hydroxyethoxy)-5-methoxyphenyl]-(1-imino-2,3-dihydro-1H-isoindol-5-ylamino)methyl}-5-oxo-4,5-dihydro-[1,2,4]triazol-1-yl)oxazole-5-carboxylic acid]
Second: COc1cc(OC)c(F)c(C(Nc2ccc3c(c2)CNC3=N)c2nn(-c3ccccc3[N+](=O)[O-])c(=O)[nH]2)c1 (centres unmarked) [Example 14, 5-[(2-Fluoro-3,5-dimethoxyphenyl)-(1-imino-2,3-dihydro-1H-isoindol-5-ylamino)methyl]-2-(2-nitrophenyl)-2,4-dihydro-[1,2,4]triazol-3-one trifluoroacetate]
The IC50 of the first is 19-fold higher: 242 nM for the first, 13 nM for the second.

For `COc1cc(F)c(C(Nc2ccc3c(c2)CNC3=N)c2nn(-c3cccc[n+]3[O-])c(=O)[nH]2)cc1OC` (centres unmarked) [Example 12, 5-[(2-Fluoro-4,5-dimethoxyphenyl)-(1-imino-2,3-dihydro-1H-isoindol-5-ylamino)methyl]-2-(1-oxypyridin-2-yl)-2,4-dihydro-[1,2,4]triazol-3-one], the IC50 was 163 nM.
